Results as given in publication PMC9975698, “Hyperoside alleviates toxicity of β-amyloid via endoplasmic reticulum-mitochondrial calcium signal transduction cascade in APP/PS1 double transgenic Alzheimer's disease mice” (Redox Biology, 2023).

Experiments:
Type in all cases: in vivo
[1] = test system: APP/PS1 mice; test: Thioflavin S staining of Aβ plaques in brain; conditions: cortex and hippocampus, HYP 20/40/80 mg/kg nasal, 8 weeks
Description: All animal care and experimental procedures were performed in accordance with the “Institutional Animal Care and User Committee Guidelines” of the Macau University of Science and Technology. APP/PSEN1 (APP/PS1) mice (N000175) were purchased from the Nanjing Institute of Biomedical Sciences, Nanjing University, China, weighing 25 ± 5 g. The animals were housed in a temperature-controlled room with a 12 h light/dark cycle and given ad libitum food and water. Male mice were randomly divided into the following 6 experimental groups. (a) wild-type group (n = 6), (b) APP/PS1 group (n = 6), (c) HYP (20 mg/kg group) (n = 7), (d) HYP (40 mg/kg) group (n = 8), (e) HYP (80 mg/kg) group (n = 8) and (f) memantine (MEM) (10 mg/kg) positive control group (n = 8). HYP was dissolved in the solvent containing 10% DMSO, 40% PEG300 and 5% Tween-80 in PBS, and administrated via nasal injection for every 3 days with a volume of 0.5 μL/g of body weight for 8 consecutive weeks. Paraffin sections of the brain were washed three times with PBS after dewaxing and then stained with THS dissolved in 50% alcohol for 7 min, followed by 50% alcohol solution for washing. Sections were then air-dried and sealed with neutral gel for microscopic observation. Images were captured by API DeltaVision Live‐cell Imaging System (Applied Precision Inc., DC, USA).

[2] = test system: APP/PS1 mice; test: Dot blot of Aβ forms in cortex and hippocampus lysates
Description: 4 μL of prepared cell or animal sample protein solutions were dotted for adsorption onto methanol-pre-activated PVDF membranes and then blocked with 5% non-fat dry milk in Tris-buffered saline and Tween 20 for 1 h. The samples were incubated overnight at 4 °C with anti-amyloid fibril primary antibody [mOC87] (Abcam, MA, USA), anti-amyloid oligomer A11 (Invitrogen, CA, USA) or purified anti-β-amyloid (1–16) antibody (clone 6E10) (Biolegend, CA, USA) (1:1000), followed by HRP-conjugated secondary antibody. Protein bands were detected using Super Signal Sensitive ECL Western Blotting Detection Reagent (Beyotime, Beijing, China) and observed using a gel imaging device (Amersham Imager 800, GE, Tokyo, Japan). All animal care and experimental procedures were performed in accordance with the “Institutional Animal Care and User Committee Guidelines” of the Macau University of Science and Technology. APP/PSEN1 (APP/PS1) mice (N000175) were purchased from the Nanjing Institute of Biomedical Sciences, Nanjing University, China, weighing 25 ± 5 g. The animals were housed in a temperature-controlled room with a 12 h light/dark cycle and given ad libitum food and water. Male mice were randomly divided into the following 6 experimental groups. […]

[3] = test system: APP/PS1 mice; test: Western blot of Bcl-2, Bax and cyto-c in cortex and hippocampus lysates; conditions: 8 weeks of HYP treatment vs APP/PS1 untreated group
Description: After HYP treatment, the cells were lysed with RIPA. Protein concentrations were determined by Bio-Rad protein assay (Bio-Rad Laboratories, CA, USA). After electrophoretic separation, the gels were blotted and stained with primary antibodies. Binding of antibodies was visualized with peroxidase-coupled secondary antibodies using ECL Western Blotting detection reagents (Invitrogen, Scotland, UK). Band intensities were quantified using ImageJ software. Data were obtained from three independent experiments. All animal care and experimental procedures were performed in accordance with the “Institutional Animal Care and User Committee Guidelines” of the Macau University of Science and Technology. APP/PSEN1 (APP/PS1) mice (N000175) were purchased from the Nanjing Institute of Biomedical Sciences, Nanjing University, China, weighing 25 ± 5 g. The animals were housed in a temperature-controlled room with a 12 h light/dark cycle and given ad libitum food and water. Male mice were randomly divided into the following 6 experimental groups. (a) wild-type group (n = 6), (b) APP/PS1 group (n = 6), (c) HYP (20 mg/kg group) (n = 7), (d) HYP (40 mg/kg) group (n = 8), (e) HYP (80 mg/kg) group (n = 8) and (f) memantine (MEM) (10 mg/kg) positive control group (n = 8). […]

Structure (SMILES): O=c1c(O[C@@H]2O[C@H](CO)[C@H](O)[C@H](O)[C@H]2O)c(-c2ccc(O)c(O)c2)oc2cc(O)cc(O)c12 [HYP, Quercetin-3-O-β-D-galactopyranoside]
- level of Aβ plaques (ThS) [1]: reduced the level of Aβ plaques in the cortex and hippocampus of APP/PS1 mice in a dose-dependent manner
- level of oligomeric, fibrillar and total Aβ (dot blot) [2]: reduced the level of both oligomeric and fibrillar form of Aβ, without altering the level of total Aβ
- level of Bax, cyto-c, Bcl-2 and Bax/Bcl-2 ratio [3]: a decrease in the level of both Bax and cyto-c, an increase in Bcl-2 expression, and a reduction in the Bax/Bcl-2 ratio
